Laboratory results published in PubChem BioAssay AID330 (DTP/NCI, 2004).
Values joined by “and” are separate entries in the source; they are usually repeats but may differ in a detail not shown here. Equal values may be shown once. Toxic doses and inconclusive results are not listed. The calls were made as follows: active = survival T/C of 150% or more; inactive = T/C below 125% in these data.

System: P388 leukemia ip, CD2F1 mice, survival T/C
Assay: NCI In Vivo Anticancer Drug Screen. Data for tumor model P388 Leukemia (intraperitoneal) in CD2F1 (CDF1) mice
Conditions: endpoint: median survival time, higher = longer survival
In short: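 Mice carrying the transplanted tumor received test compound or vehicle. Survival was recorded in each group, and the value is the treated-group measurement divided by that of the vehicle-treated control group.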

[1] = dose: 100.0 mg/kg/injection, schedule: Q01DX001 (ip), vehicle: Klucel (hydroxypropylcellulose) (HPC)
[2] = dose: 200.0 mg/kg/injection, schedule: Q01DX001 (ip), vehicle: Klucel (hydroxypropylcellulose) (HPC)
[3] = dose: 400.0 mg/kg/injection, schedule: Q01DX001 (ip), vehicle: Klucel (hydroxypropylcellulose) (HPC)
[4] = dose: 100.0 mg/kg/injection, schedule: Q01DX001 (ip), vehicle: saline with Tween-80
[5] = dose: 200.0 mg/kg/injection, schedule: Q01DX001 (ip), vehicle: saline with Tween-80
[6] = dose: 60.0 mg/kg/injection, schedule: Q01DX005 (ip), vehicle: saline with Tween-80
[7] = dose: 120.0 mg/kg/injection, schedule: Q01DX005 (ip), vehicle: saline with Tween-80
[8] = dose: 240.0 mg/kg/injection, schedule: Q01DX005 (ip), vehicle: saline with Tween-80
[9] = dose: 50.0 mg/kg/injection, schedule: Q01DX005 (ip), vehicle: saline with Tween-80
[10] = dose: 100.0 mg/kg/injection, schedule: Q01DX005 (ip), vehicle: saline with Tween-80
[11] = dose: 200.0 mg/kg/injection, schedule: Q01DX005 (ip), vehicle: saline with Tween-80
[12] = dose: 25.0 mg/kg/injection, schedule: Q01DX009 (ip), vehicle: saline
[13] = dose: 50.0 mg/kg/injection, schedule: Q01DX009 (ip), vehicle: saline
[14] = dose: 100.0 mg/kg/injection, schedule: Q01DX009 (ip), vehicle: saline
[15] = dose: 200.0 mg/kg/injection, schedule: Q01DX009 (ip), vehicle: saline
[16] = dose: 25.0 mg/kg/injection, schedule: Q01DX005 (ip), vehicle: Klucel (hydroxypropylcellulose) (HPC)
[17] = dose: 50.0 mg/kg/injection, schedule: Q01DX005 (ip), vehicle: Klucel (hydroxypropylcellulose) (HPC)
[18] = dose: 50.0 mg/kg/injection, schedule: Q01DX009 (ip), vehicle: saline with Tween-80
[19] = dose: 100.0 mg/kg/injection, schedule: Q01DX009 (ip), vehicle: saline with Tween-80
[20] = dose: 200.0 mg/kg/injection, schedule: Q01DX009 (ip), vehicle: saline with Tween-80
[21] = dose: 100.0 mg/kg/injection, schedule: Q01DX005 (ip), vehicle: Klucel (hydroxypropylcellulose) (HPC)
[22] = dose: 200.0 mg/kg/injection, schedule: Q01DX005 (ip), vehicle: Klucel (hydroxypropylcellulose) (HPC)
[23] = dose: 100.0 mg/kg/injection, schedule: Q01DX009 (ip), vehicle: Klucel (hydroxypropylcellulose) (HPC)
[24] = dose: 200.0 mg/kg/injection, schedule: Q01DX009 (ip), vehicle: Klucel (hydroxypropylcellulose) (HPC)
[25] = dose: 25.0 mg/kg/injection, schedule: Q01DX009 (ip), vehicle: Klucel (hydroxypropylcellulose) (HPC)
[26] = dose: 50.0 mg/kg/injection, schedule: Q01DX009 (ip), vehicle: Klucel (hydroxypropylcellulose) (HPC)

Measured: T/C

[N-]=[N+]=NC(c1ccccc1)n1nnnc1-c1ccccc1 (stereo not drawn)
inactive: [1] 101 % of control and 88 % of control | [2] 102 % of control and 95 % of control | [3] 98 % of control and 120 % of control

CCn1c(=O)c2[nH]c(Cl)nc2n(CC)c1=O
inactive: dose: 25.0 mg/kg/injection, schedule: Q04DX003 (ip), vehicle: water 91 % of control | dose: 50.0 mg/kg/injection, schedule: Q04DX003 (ip), vehicle: water 103 % of control | dose: 100.0 mg/kg/injection, schedule: Q04DX003 (ip), vehicle: water 112 % of control

COc1cc(OC)c2c(=O)c3ccc([N+](=O)[O-])cc3n(C)c2c1
inactive: [4] 100 % of control | [5] 100 % of control

O=C(Nc1ccc(S(=O)(=O)F)cc1)Oc1ccc([N+](=O)[O-])cc1
inactive: [6] 121 % of control | [7] 101 % of control | [8] 86 % of control

O=C(O)CSC(SCC(=O)O)c1ccc(F)cc1
inactive: [9] 96 % of control | [10] 96 % of control | [11] 97 % of control

CCOC(=O)CN(C=O)C(C)c1ccccc1 (stereo not drawn)
inactive: [12] 114 % of control | [13] 99 % of control | [14] 98 % of control | [15] 99 % of control

CP12(OC(C(F)(F)F)(C(F)(F)F)c3ccccc31)OC(C(F)(F)F)(C(F)(F)F)c1ccccc12
inactive: dose: 100.0 mg/kg/injection, schedule: Q04DX002 (ip), vehicle: Klucel (hydroxypropylcellulose) (HPC) 100 % of control | dose: 200.0 mg/kg/injection, schedule: Q04DX002 (ip), vehicle: Klucel (hydroxypropylcellulose) (HPC) 101 % of control | dose: 400.0 mg/kg/injection, schedule: Q04DX002 (ip), vehicle: Klucel (hydroxypropylcellulose) (HPC) 96 % of control

CC(C)NCc1ccccc1Sc1ccccc1CNC(C)C
inactive: dose: 25.0 mg/kg/injection, schedule: Q01DX001 (ip), vehicle: saline with Tween-80 99 % of control | dose: 25.0 mg/kg/injection, schedule: Q04DX002 (ip), vehicle: saline 103 % of control | dose: 50.0 mg/kg/injection, schedule: Q01DX001 (ip), vehicle: saline with Tween-80 98 % of control | dose: 50.0 mg/kg/injection, schedule: Q04DX002 (ip), vehicle: saline 103 % of control | [4] 98 % of control | dose: 100.0 mg/kg/injection, schedule: Q04DX002 (ip), vehicle: saline 103 % of control

CN1CCCc2cccc(c2)CCC1
inactive: dose: 12.5 mg/kg/injection, schedule: Q01DX005 (ip), vehicle: Klucel (hydroxypropylcellulose) (HPC) 98 % of control | [16] 100 % of control | [17] 99 % of control and 95 % of control

C[N+](C)(C[Si](C)(C)C)C1CCCCCCCCCCC1
inactive: dose: 15.0 mg/kg/injection, schedule: Q01DX005 (ip), vehicle: saline with Tween-80 102 % of control

O=C(O)c1cc2ccccc2c2c1C(=O)c1ccccc1-2
inactive: [18] 90 % of control | [19] 95 % of control | [20] 91 % of control

CCC(/C=C/c1ccc(OC)cc1)=N/Nc1ccccc1
inactive: dose: 30.0 mg/kg/injection, schedule: Q01DX005 (ip), vehicle: other 109 % of control | dose: 60.0 mg/kg/injection, schedule: Q01DX005 (ip), vehicle: other 100 % of control | dose: 120.0 mg/kg/injection, schedule: Q01DX005 (ip), vehicle: other 103 % of control and 109 % of control | dose: 240.0 mg/kg/injection, schedule: Q01DX005 (ip), vehicle: other 113 % of control

N#Cc1ccc(NC(=O)Nc2ccc([N+](=O)[O-])cc2Cl)cc1
inactive: [6] 93 % of control | [7] 86 % of control | [8] 89 % of control and 92 % of control

COc1ccc(CCNC(=O)CC2CCN(Cc3ccccc3)CC2)cc1OC
inactive: [17] 100 % of control | [21] 100 % of control | [22] 95 % of control

O=C=Nc1ccc(Cc2ccc(N=C=O)cc2)cc1
inactive: [23] 103 % of control | [24] 98 % of control | dose: 400.0 mg/kg/injection, schedule: Q01DX009 (ip), vehicle: Klucel (hydroxypropylcellulose) (HPC) 93 % of control

N#CC(OC(=O)c1ccccc1)C(OC(=O)c1ccccc1)C(COC(=O)c1ccccc1)OC(=O)c1ccccc1 (stereo not drawn)
inactive: [9] 99 % of control and 92 % of control | [10] 94 % of control | [11] 99 % of control

O=c1[nH]cnc2[nH]cc([N+](=O)[O-])c12
inactive: dose: 6.25 mg/kg/injection, schedule: Q01DX009 (ip), vehicle: saline 102 % of control | dose: 12.5 mg/kg/injection, schedule: Q01DX009 (ip), vehicle: saline 107 % of control | [12] 102 % of control | [13] 103 % of control

COC1/C=C\OC2(C)Oc3c(C)c(O)c4c(O)c(c5c(c4c3C2=O)NC2(CCN(Cc3ccccc3)CC2)N=5)=NC(=O)/C(C)=C\C=C\C(C)C(O)C(C)C(O)C(C)C(OC(C)=O)C1C (stereo not drawn)
inactive: [25] 102 % of control | [26] 107 % of control | [23] 111 % of control | [24] 103 % of control

Clc1ccc(C2SC=Cc3ccccc32)cc1 (stereo not drawn)
inactive: dose: 12.5 mg/kg/injection, schedule: Q01DX009 (ip), vehicle: Klucel (hydroxypropylcellulose) (HPC) 105 % of control and 113 % of control | [25] 105 % of control and 115 % of control | [26] 104 % of control and 112 % of control | [23] 116 % of control and 122 % of control | [24] 122 % of control and 95 % of control

CC1CNC(=O)NC1=O (stereo not drawn)
inactive: [18] 94 % of control | [19] 86 % of control

CCOC(=O)CCN(CC1CC=CCC1)c1cc(O)c2c(c1O)C(=O)c1ccccc1C2=O (stereo not drawn)
inactive: dose: 25.0 mg/kg/injection, schedule: Q01DX005 (ip), vehicle: saline with Tween-80 91 % of control | [9] 92 % of control | [10] 90 % of control | [11] 92 % of control

O=C(CCc1cc2[nH]c1c(-c1ccccc1)c1nc(c(-c3ccccc3)c3ccc([nH]3)c(-c3ccccc3)c3nc(c2-c2ccccc2)C=C3)C=C1)NCCCn1ccnc1
inactive: dose: 50.0 mg/kg/injection, schedule: Q01DX001 (ip), vehicle: Klucel (hydroxypropylcellulose) (HPC) 99 % of control | [1] 91 % of control | [2] 91 % of control | [3] 96 % of control

Cc1ccc(S(=O)(=O)NC(=S)c2ccccc2C(=S)NS(=O)(=O)c2ccc(C)cc2)cc1
inactive: [4] 103 % of control | [5] 110 % of control | dose: 400.0 mg/kg/injection, schedule: Q01DX001 (ip), vehicle: saline with Tween-80 104 % of control

O=C1C2CCCC1C(c1ccccc1)NC2c1ccccc1 (stereo not drawn)
inactive: [16] 104 % of control | [17] 102 % of control | [21] 96 % of control | [22] 98 % of control

CN(N=C1C(N)=NN=C1N)c1ccccc1
inactive: dose: 50.0 mg/kg/injection, schedule: Q04DX002 (ip), vehicle: saline with Tween-80 106 % of control | dose: 100.0 mg/kg/injection, schedule: Q04DX002 (ip), vehicle: saline with Tween-80 93 % of control | dose: 200.0 mg/kg/injection, schedule: Q04DX002 (ip), vehicle: saline with Tween-80 100 % of control

CCOC(=O)C(C)(OCC)OCC
inactive: dose: 25.0 mg/kg/injection, schedule: Q01DX009 (ip), vehicle: saline with Tween-80 101 % of control | [18] 98 % of control | [19] 98 % of control | [20] 98 % of control | dose: 400.0 mg/kg/injection, schedule: Q01DX009 (ip), vehicle: saline with Tween-80 100 % of control

NC1=NC(c2ccc(O)cc2O)c2[nH]cnc2N1 (stereo not drawn)
inactive: [13] 99 % of control | [14] 100 % of control | [15] 97 % of control

Cc1ccc(NC(=O)Oc2ccc(F)cc2Cl)c([N+](=O)[O-])c1
inactive: [18] 112 % of control | [19] 118 % of control
